The IC50 is the midpoint of a concentration-inhibition curve. High values mean weaker potency, low ones greater potency.

Molecules are shown by their SMILES. Entries after “also recorded” stand apart in the source; their conditions may differ. Marks after values point to notes of the source that are not given here.

From PMC10253498 (RSC Advances, 2023) come the findings set out here.

The target in assay [1] is T1, monoamine oxidase A (MAO-A, extracted) (Homo sapiens, UniProt P21397).
T1 sequence (P21397 1-527): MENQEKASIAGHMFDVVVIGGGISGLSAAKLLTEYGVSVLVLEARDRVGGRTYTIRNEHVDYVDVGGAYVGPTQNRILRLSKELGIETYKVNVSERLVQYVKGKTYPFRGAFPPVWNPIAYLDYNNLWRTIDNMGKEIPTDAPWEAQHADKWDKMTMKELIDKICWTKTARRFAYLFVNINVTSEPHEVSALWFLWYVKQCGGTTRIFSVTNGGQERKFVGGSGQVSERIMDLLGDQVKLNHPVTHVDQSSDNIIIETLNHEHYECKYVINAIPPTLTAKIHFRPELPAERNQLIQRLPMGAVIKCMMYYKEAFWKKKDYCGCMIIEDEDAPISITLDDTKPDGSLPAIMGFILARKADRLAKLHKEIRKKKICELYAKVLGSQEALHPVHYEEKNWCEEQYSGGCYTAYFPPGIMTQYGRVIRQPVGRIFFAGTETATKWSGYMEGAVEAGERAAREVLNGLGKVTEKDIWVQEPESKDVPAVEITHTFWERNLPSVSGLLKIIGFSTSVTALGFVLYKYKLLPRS
The conditions noted are these: for MAO-A %age inhibition: compounds not above 50% inhibition, test concentration not given.

The target of assay [2] is T2, monoamine oxidase B (MAO-B, extracted) (Homo sapiens, UniProt P27338).
T2 sequence (P27338 1-520): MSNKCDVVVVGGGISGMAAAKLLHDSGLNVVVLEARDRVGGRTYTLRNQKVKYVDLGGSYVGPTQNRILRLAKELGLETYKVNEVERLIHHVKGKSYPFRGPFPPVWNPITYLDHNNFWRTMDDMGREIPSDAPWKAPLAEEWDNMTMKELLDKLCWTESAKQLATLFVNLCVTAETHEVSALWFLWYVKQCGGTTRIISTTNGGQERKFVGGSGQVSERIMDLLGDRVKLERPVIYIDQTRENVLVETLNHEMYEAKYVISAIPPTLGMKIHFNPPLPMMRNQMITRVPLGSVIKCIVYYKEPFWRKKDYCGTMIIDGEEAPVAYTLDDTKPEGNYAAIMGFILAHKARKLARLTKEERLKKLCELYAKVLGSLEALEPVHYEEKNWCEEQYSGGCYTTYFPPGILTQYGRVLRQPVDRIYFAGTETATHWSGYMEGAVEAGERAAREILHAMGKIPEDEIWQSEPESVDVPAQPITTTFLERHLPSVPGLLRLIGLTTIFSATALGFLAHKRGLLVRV
The conditions noted are these: for MAO-B %age inhibition: compounds not above 50% inhibition, test concentration not given.

In assay [3] the target is butyryl cholinesterase (BChE) (Homo sapiens, UniProt P06276). As to the kind of experiment: Butyryl cholinesterase inhibition assay. The following applies: for BChE %age inhibition: test concentration not given. The class given is biochemical.
In assay [4] the target is T3, acetyl cholinesterase (AChE) (Homo sapiens, UniProt P22303). The conditions noted are these: for AChE %age inhibition: test concentration not given.
Assay [5] has as its target T1, monoamine oxidase A (MAO-A, extracted). As to the kind of experiment: biochemical.
Protocol: (§1) Newly synthesized compounds were tested on monoamine oxidase A and B (extracted). […] Reaction mixture was composed of 100 μL of total assay volume having 30 μL buffer (pH 7.4), 10 μL test compounds, 10 μL of extracted enzyme (MAO-A: 13 μg mL^−1, MAO-B: 15 μg mL^−1), 30 μL of amplex red and 20 μL of substrate (p-tyramine). Initially reaction mixture having buffer + test compound + enzyme was incubated for 15 minutes for MAO-A And MAO-B. After Incubation the amplex red reagent was added followed by addition of substrate p-tyramine. The change in the fluorescence was determined by using fluorescence plate reader: FLUOstar® Omega (BMG Labtech GmbH, orten berg Germany). […] All experiments were performed in triplicate. IC50 values were calculated by non-linear curve fitting program PRISM 5.0 (GraphPad, San Diego, California, USA) where log inhibitor vs. response curve was generated.
Assay [6] deals with T2, monoamine oxidase B (MAO-B, extracted). Briefly: biochemical.
Protocol: as §1
Assay [7] has as its target T3, acetyl cholinesterase (AChE). Briefly: biochemical.

T3 sequence (P22303 32-614, species assumed): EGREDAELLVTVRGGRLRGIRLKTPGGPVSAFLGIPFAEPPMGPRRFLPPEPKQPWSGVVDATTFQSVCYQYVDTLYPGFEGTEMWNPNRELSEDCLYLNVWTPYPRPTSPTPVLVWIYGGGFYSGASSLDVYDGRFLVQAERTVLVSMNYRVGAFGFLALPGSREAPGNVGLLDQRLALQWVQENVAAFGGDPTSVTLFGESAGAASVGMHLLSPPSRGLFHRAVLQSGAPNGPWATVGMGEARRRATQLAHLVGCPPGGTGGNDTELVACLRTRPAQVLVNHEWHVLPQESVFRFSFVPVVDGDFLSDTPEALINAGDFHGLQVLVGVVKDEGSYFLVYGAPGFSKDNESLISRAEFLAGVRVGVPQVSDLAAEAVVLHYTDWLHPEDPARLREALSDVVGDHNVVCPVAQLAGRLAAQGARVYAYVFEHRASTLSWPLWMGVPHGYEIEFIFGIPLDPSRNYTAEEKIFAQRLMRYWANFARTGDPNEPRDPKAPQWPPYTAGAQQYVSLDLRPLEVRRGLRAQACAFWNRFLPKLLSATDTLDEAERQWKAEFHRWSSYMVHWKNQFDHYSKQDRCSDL
butyryl cholinesterase (BChE), sequence (P06276 29-602, species assumed): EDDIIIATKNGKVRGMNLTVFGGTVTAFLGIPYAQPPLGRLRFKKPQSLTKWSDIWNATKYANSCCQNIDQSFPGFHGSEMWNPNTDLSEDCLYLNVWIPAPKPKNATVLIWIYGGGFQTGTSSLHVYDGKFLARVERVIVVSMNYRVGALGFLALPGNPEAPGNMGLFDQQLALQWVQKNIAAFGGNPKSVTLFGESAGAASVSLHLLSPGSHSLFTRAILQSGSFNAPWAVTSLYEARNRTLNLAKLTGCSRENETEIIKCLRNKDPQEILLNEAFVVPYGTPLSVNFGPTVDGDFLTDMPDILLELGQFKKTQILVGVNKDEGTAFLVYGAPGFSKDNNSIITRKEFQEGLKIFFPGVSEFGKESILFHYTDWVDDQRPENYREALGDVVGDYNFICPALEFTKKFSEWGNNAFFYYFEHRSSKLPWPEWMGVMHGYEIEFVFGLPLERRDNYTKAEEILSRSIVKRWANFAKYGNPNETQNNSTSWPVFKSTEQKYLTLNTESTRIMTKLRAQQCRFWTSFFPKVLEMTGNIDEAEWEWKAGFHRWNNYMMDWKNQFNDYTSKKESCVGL

`N#Cc1cccc(Nc2nnc(-c3ccc(C(F)(F)F)cc3)o2)c1` [Compound 4a, 3-((5-(4-(Trifluoromethyl)phenyl)-1,3,4-oxadiazol-2-yl)amino)benzonitrile]: in assay [1], the “inhibition against MAO-A (in words)” value is reported as “weak inhibition” and the MAO-A %age inhibition is reported as 33.23 ^c %. For the same compound, the MAO-B %age inhibition in assay [2] is on record as 37.06 ^c %. In addition, the BChE %age inhibition in assay [3] came to 20.54% ^c. In assay [4], the “inhibition against AChE (in words)” value is given as “moderate to weak inhibition” and the AChE %age inhibition is on record as 42.32% ^c.
As for `N#Cc1cccc(Nc2nnc(Cc3ccccc3C(F)(F)F)o2)c1` [Compound 4b, 3-((5-(2-(Trifluoromethyl)benzyl)-1,3,4-oxadiazol-2-yl)amino)benzonitrile], the MAO-B %age inhibition in assay [2] is 35.73 ^c %. Besides, the BChE %age inhibition in assay [3] was found to be 23.65% ^c. Also, in assay [4], the “inhibition against AChE (in words)” value was “moderate to weak inhibition” and the AChE %age inhibition stood at 31.34% ^c. For the same compound, the half-maximal inhibitory concentration (IC50) in assay [5] came to 2860 ± 1510 nM.
With `Fc1ccccc1Nc1nnc(Cc2ccccc2C(F)(F)F)o1` [Compound 4c, N-(2-Fluorophenyl)-5-(2-(trifluoromethyl)benzyl)-1,3,4-oxadiazol-2-amine], in assay [1], the “inhibition against MAO-A (in words)” value is “potent inhibition”. In assay [2], the “inhibition against MAO-B (in words)” value is listed as “strong inhibition”. Moreover, in assay [3], the BChE %age inhibition stood at 14.76% ^c. The IC50 in assay [5] turned out to be 1900 ± 250 nM.
For `c1ccc(Nc2nnc(-c3ccncc3)o2)cc1` [Compound 4d, N-Phenyl-5-(pyridin-4-yl)-1,3,4-oxadiazol-2-amine] the same measures were “potent inhibition; also recorded: promising inhibitory effects”, “strong inhibition; also recorded: promising inhibitory effects”, 23.67% ^c and 1440 ± 220 nM.
Consider `Cc1ccc(Nc2nnc(-c3cccc(F)c3)o2)c(C)c1` [Compound 4e, N-(2,4-Dimethylphenyl)-5-(3-fluorophenyl)-1,3,4-oxadiazol-2-amine], for which the “inhibition against MAO-A (in words)” value in assay [1] is reported as “potent inhibition”. Moreover, the “inhibition against MAO-B (in words)” value in assay [2] was “strong inhibition”. Moreover, the results for the IC50 in assay [6], in assay [5] and in assay [7] were 1910 ± 890 nM, 1470 ± 450 nM and 1960 ± 176 nM, respectively. In assay [3], this compound had a BChE %age inhibition of 10.54% ^c. For the same compound, in assay [4], the “inhibition against AChE (in words)” value is given as “potent inhibition”.
Consider `Fc1cc(F)cc(Cc2nnc(Nc3ccccc3F)o2)c1` [Compound 4f, 5-(3,5-Difluorobenzyl)-N-(2-fluorophenyl)-1,3,4-oxadiazol-2-amine], for which, in assay [1], the “inhibition against MAO-A (in words)” value is reported as “weak inhibition” and the MAO-A %age inhibition is given as 34.82 ^c %. Moreover, the MAO-B %age inhibition in assay [2] was 39.46 ^c %. Moreover, the BChE %age inhibition in assay [3] worked out at 22.61% ^c. In assay [4], the “inhibition against AChE (in words)” value was “potent inhibition”. The same compound yielded an IC50 in assay [7] of 2030 ± 434 nM.
Take `Fc1cc(F)cc(Cc2nnc(Nc3ccc(F)cc3F)o2)c1` [Compound 4g, N-(2,4-Difluorophenyl)-5-(3,5-difluorobenzyl)-1,3,4-oxadiazol-2-amine]: the “inhibition against MAO-A (in words)” value in assay [1] is given as “potent inhibition”. For the same compound, the “inhibition against MAO-B (in words)” value in assay [2] is “strong inhibition”. In addition, the IC50 in assay [6] is 2020 ± 1260 nM; in assay [5] it was 1210 ± 40 nM; in assay [7], 1110 ± 80 nM. The compound also showed a BChE %age inhibition in assay [3] of 15.23% ^c.
Regarding `Cc1ccc(F)c(-c2nnc(Nc3ccccc3F)o2)c1` [Compound 4h, 5-(2-Fluoro-5-methylphenyl)-N-(2-fluorophenyl)-1,3,4-oxadiazol-2-amine], in assay [1], the “inhibition against MAO-A (in words)” value is reported as “weak inhibition” and the MAO-A %age inhibition was 21.87 ^c %. In addition, the MAO-B %age inhibition in assay [2] was 29.36 ^c %. The compound further showed a BChE %age inhibition in assay [3] of 12.43% ^c. In addition, in assay [4], the “inhibition against AChE (in words)” value was “potent inhibition”. This compound also gave an IC50 in assay [7] of 1510 ± 462 nM.
Consider `Fc1ccccc1Nc1nnc(-c2ccc(C(F)(F)F)cc2)o1` [Compound 4i, N-(2-Fluorophenyl)-5-(4-(trifluoromethyl)phenyl)-1,3,4-oxadiazol-2-amine], for which, in assay [1], the “inhibition against MAO-A (in words)” value is listed as “weak inhibition” and the MAO-A %age inhibition is recorded as 38.11 ^c %. The MAO-B %age inhibition in assay [2] is given as 32.53 ^c %. For the same compound, the BChE %age inhibition in assay [3] is reported as 21.45% ^c. In assay [4], the “inhibition against AChE (in words)” value is given as “potent inhibition; also recorded: moderate to weak inhibition” and the AChE %age inhibition stood at 37.12% ^c.
Consider `N#Cc1cccc(Nc2nnc(-c3ccncc3)o2)c1` [Compound 4j, 3-((5-(Pyridin-4-yl)-1,3,4-oxadiazol-2-yl)amino)benzonitrile], for which the “inhibition against MAO-A (in words)” value in assay [1] is reported as “potent inhibition”. In addition, in assay [2], the “inhibition against MAO-B (in words)” value is reported as “lost its inhibitory effects” and the MAO-B %age inhibition is reported as 18.57 ^c %. The BChE %age inhibition in assay [3] amounted to 20.55% ^c. In addition, the “inhibition against AChE (in words)” value in assay [4] is “potent inhibition”. For the same compound, the IC50 in assay [5] stood at 1020 ± 90 nM. In assay [7], the midpoint of inhibition, the IC50, lay at 1560 ± 309 nM.
Take `Cc1ccc(Nc2nnc(-c3ccncc3)o2)c(C)c1` [Compound 4k, N-(2,4-Dimethylphenyl)-5-(pyridin-4-yl)-1,3,4-oxadiazol-2-amine]: in assay [1], the “inhibition against MAO-A (in words)” value is recorded as “potent inhibition”. Also, the “inhibition against MAO-B (in words)” value in assay [2] is “strong inhibition; also recorded: restored its inhibitory effects”. In assay [6], the IC50 is 1100 ± 1160 nM. This compound also gave a BChE %age inhibition in assay [3] of 14.67% ^c. Moreover, in assay [4], the “inhibition against AChE (in words)” value is reported as “moderate to weak inhibition; also recorded: lost its inhibitory effects” and the AChE %age inhibition is recorded as 39.65% ^c. This compound also yielded an IC50 in assay [5] of 3460 ± 2580 nM.
`FC(F)(F)c1ccc(-c2nnc(Nc3ccc(Br)cc3)o2)cc1` [Compound 4l, N-(4-Bromophenyl)-5-(4-(trifluoromethyl)phenyl)-1,3,4-oxadiazol-2-amine]: in assay [1], the “inhibition against MAO-A (in words)” value is “weak inhibition; also recorded: demolished the activity” and the MAO-A %age inhibition is 36.81 ^c %. Moreover, in assay [2], the “inhibition against MAO-B (in words)” value is “demolished the activity” and the MAO-B %age inhibition was 24.86 ^c %. In assay [3], the “inhibition against BChE (in words)” value is “demolished the activity” and the BChE %age inhibition is 26.91% ^c. For the same compound, in assay [4], the “inhibition against AChE (in words)” value is “moderate to weak inhibition; also recorded: demolished the activity” and the AChE %age inhibition came to 44.56% ^c.
Consider `CC(C)c1ccc(Nc2nnc(-c3ccc(C(F)(F)F)cc3)o2)cc1` [Compound 4m, N-(4-Isopropylphenyl)-5-(4-(trifluoromethyl)phenyl)-1,3,4-oxadiazol-2-amine], for which, in assay [1], the “inhibition against MAO-A (in words)” value was “potent inhibition”. Further, the “inhibition against MAO-B (in words)” value in assay [2] was “strong inhibition”. The BChE %age inhibition in assay [3] was determined as 15.78% ^c. 110 ± 1 nM corresponded to half-maximal inhibition in assay [5] (IC50).
For `Cc1ccccc1Nc1nnc(-c2ccccc2)o1` [Compound 4n, 5-Phenyl-N-(o-tolyl)-1,3,4-oxadiazol-2-amine], in assay [1], the “inhibition against MAO-A (in words)” value is reported as “weak inhibition” and the MAO-A %age inhibition was 21.07 ^c %. Besides, the MAO-B %age inhibition in assay [2] is listed as 18.47 ^c %. This compound also yielded a BChE %age inhibition in assay [3] of 28.87% ^c.
Turning to `Cc1c(F)cccc1-c1nnc(Nc2ccccc2)o1` [Compound 4o, 5-(3-Fluoro-2-methylphenyl)-N-phenyl-1,3,4-oxadiazol-2-amine], in assay [1], the MAO-A %age inhibition is 29.98 ^c %. In addition, the MAO-B %age inhibition in assay [2] is 22.65 ^c %. The BChE %age inhibition in assay [3] was determined as 32.98% ^c. The same compound returned an IC50 in assay [7] of 2320 ± 80 nM.
